Literature values, collected in patent US9464021B2, “Method of preparation of stereospecific quinone derivatives” (priority 2013, dated 2016).

How the values were obtained:
[1] = in vivo
[2] = liver fractions

In the case of `CC1=C(C/C=C(/C)CCC[C@H](C)CCC[C@H](C)CCCC(C)C)C(=O)c2ccccc2C1=O` (relative stereo) [cis-phylloquinone], the “biological activity as vitamin K” value [1] is listed as “little or no biological activity as vitamin K” and the hepatic subcellular distribution [2] is listed as “retained preferentially by mitochondria”.
In the case of `CC1=C(C/C=C(\C)CCC[C@H](C)CCC[C@H](C)CCCC(C)C)C(=O)c2ccccc2C1=O` (single isomer, unassigned) [trans isomer, phylloquinone], the “biological activity as vitamin K” value [1] is listed as “full potency of the vitamin” and the hepatic subcellular distribution [2] is listed as “associated principally with the microsomal fraction and subfractions”.
